Measured values as given in patent US20160331716A1, “MOLECULAR TARGETS FOR HEALING OR TREATING WOUNDS” (UNIVERSITY COLLEGE CARDIFF CONSULTANTS LIMITED, priority 2011, published 2016).

Columns and labels:
[1] = Tolerance in db/db during wound healing study; type: in vivo, mice; conditions: systemic, every other day, two week period
Protocol: (§1) The first tolerance test was conducted on the CD-1 athymic (Charles River Laboratories). Briefly, CD-1 of 4-6 weeks old, 20 g in weight, were housed in filter topped cages. Sodium stibogluconate a known PTPRK inhibitor was injected, via the intraperitoneal route, on a daily basis. The compound was given at 100 final concentration (equivalent to ˜10 mg/kg body weight) in 100 ul in volume. CD-1 were observed daily, weighed twice weekly. An additional tolerance and efficacy test was carried out using the db/db strain.
(§2) The diabetic strain of db/db was obtained from Harlan. 4-6 weeks old with body weight at 20 g were used. Creation of a wound was according to a recently described method. Briefly, after being housed for a week, the db/db were first ear-pieced using an puncher, in order to create a wound (hole) of 1 mm in diameter. The following day after wound creation, all the db/db were weighed and the wound was photographed using a digital camera. Treatment was given systemically (by IP injection) or topically (by manually applying the compound in gel into the wound area). Both treatments were given every other day, twice weekly or weekly. Images were obtained weekly. The size of the wounds was determined using an image analysis software and is shown here as the area in pixels.
Formulation of the Compounds. • 1. For systemic application, Sodium stibogluconate was dissolved in BSS and diluted in the same for the required concentration. The solutions were prepared that each 100 ul contained the correct amount of compounds and was aliquatted and stored as such at −20° C. until used. The compound was injected every other day by the IP route. • 2. For topical application, we used two carrier gels that are currently used in wound care, namely Bactroban and Aquagel. From the concentrated master stock of Sodium stibogluconate, 100 ul of the stock solution was mixed with 2 grams of the respective gels, followed by low speed homogenisation using a hand held homogeniser, for 2 minutes. […]

db/db mice = test: In vivo efficacy test, ear-punch wound healing in diabetic db/db; conditions: for rate of wound healing: 2-100 mg/ml
Description: as §2
Formulation of the Compounds. • 1. For systemic application, Sodium stibogluconate was dissolved in BSS and diluted in the same for the required concentration. The solutions were prepared that each 100 ul contained the correct amount of compounds and was aliquatted and stored as such at −20° C. until used. The compound was injected every other day by the IP route. • 2. For topical application, we used two carrier gels that are currently used in wound care, namely Bactroban and Aquagel. From the concentrated master stock of Sodium stibogluconate, 100 ul of the stock solution was mixed with 2 grams of the respective gels, followed by low speed homogenisation using a hand held homogeniser, for 2 minutes. […] For use, small amount (150 ul) of the gel was applied to the wound area and gently rubbed in using fingers. • 3. […] Sodium stibogluconate increased the rate of wound healing without producing any side effects. • Sodium stibogluconate was given systemically, at 100 uM.
Using the same db/db mice, we further tested the possible dose response by applying stibogluconate at 2 mg/ml. 20 mg/ml and 100 mg/ml, using topical applications. At the same time, we tested two treatment methods: applying the agent on a weekly basis or twice weekly basis. We determined the size of the wound on a weekly basis. […] Using a Two-way ANOVA (Holm-Sidak model), it was shown that in both treatment regimes, there was a highly significant difference between the treatment group and control group, p=0.013, […] and 0.009, control vs 2 mg/ml, 20 mg/ml and 100 mg respectively, for the twice weekly treatment, and p=0.05, 0.013, 0.009 for the weekly treatment group.

HECV cells = test: ECIS cell adhesion assay, HECV endothelial cells; type: cell-based, human
Protocol: HaCaT, a human keratinocyte cell line was purchased from the German Cancer Centre, HECV, a human vascular endothelial cells from Interlab, Milan, Italy, DB/DB mice from Harlan UK.
HaCaT and HECV cells, which were positive for PTPRK, were transfected with anti-PTPRK transgenes by way of electroporation (270 v). After selection with a selection medium (DMEM with 10 ug/ml blasticidin) for 10 days, clones of selected cells were pooled and used for subsequent analysis.
(§3) Three models of ECIS instrument were used: ECIS 9600 for screening and ECIS1600R and ECIS Z8 for modelling. In all systems, 8W10 arrays were used (Applied Biophysics Inc., Troy, N.Y., USA) (Giaever and Keese 1991, Kees et al 2004). Following treating the array surface with a Cysteine solution (or array stabilization procedure for ECIS Z8), the arrays were incubated with complete medium for 1 hr Electric changes were continuously monitored for up to 24 hrs. In the 9600 system, the monitoring was at fixed […]. In the 1600R and ECIS Zθ systems, cells were monitored at 62.5, 125, 250, 500, 1,000, 2,000, 4,000, 8,000, 16,000, 32,000 and 64,000 Hz. The adhesion was analysed by the integrated Rb modelling method.

[2] = In vivo tolerance test in CD-1 athymic; conditions: intraperitoneal, daily, ~10 mg/kg body weight
Protocol: as §1
as §1, with “conducted” for “conducted on”, “stibogluconate” for “stibogluconate a known PTPRK inhibitor”, “10” for “˜10”

HaCaT cells = test: ECIS wounding (migration) assay, HaCaT keratinocytes; type: cell-based, human; conditions: over a range of concentrations
Protocol: as §3
Using the ECIS Theta96 model, we tested the response of cells to stibugluconate over a range of concentrations. HaCaT cells responded over the range of concentrations tested in that there was an increase in cell adhesion between 0.16-20 uM with 20 uM showing the maximum effects, FIGS. 5 & 6. Likewise, the cells also responded to stibogluconate by increasing their migration from concentrations as low as 160 nM to 100 uM, FIGS. 7, 8 & 9.

O.O.O.O.O.O.O.O.O.O=C([O-])[C@@H]1[O][Sb]2([O-])([O][Sb]34([OH])[O][C@H]([C@H](O)CO)[C@H]([O]3)[C@H](C(=O)[O-])[O]4)[O][C@H]([C@H](O)CO)[C@@H]1[O]2.[Na+].[Na+].[Na+] [stibogluconate, Sodium stibogluconate]
side effects [1]: did not observe any side effects
tolerance [1]: well tolerated
weight loss [1]: no weight loss
wound size versus control group (db/db mice; systemic (IP) at 100 uM, after one week): smaller than the control group
twice weekly versus weekly administration, rate of wound healing (db/db mice; topical): marginally more effective
rate of wound healing (db/db mice; topical, twice weekly application): rapid rate of wound healing
rate of wound healing (db/db mice; topical, weekly application): rapid rate of wound healing
effect of interrupting the treatment regimen on healing (db/db mice; treatment removed between third and fourth week, weekly or twice weekly regimen): adversely affects the healing process
cell adhesion to the surface of the electrode (ECIS) (HECV cells; HECV/WT treated with stibogluconate): rapid adhesion
response to stibogluconate of HECV/PTPRKrib cells compared with HECV/WT (HECV cells; PTPRK knock-down cells, ECIS adhesion): markedly reduced
tolerance in vivo [2]: Well Tolerated
effect on the migration of the cells (keratinocytes) (HaCaT cells): concentration dependent effect
